Test results from patent US20070104648A1, “Compositions, methods of preparing amino acids, and nuclear magnetic resonance spectroscopy” (Glyconix Corporation, priority 2005, published 2007).

What was measured:
[1] = Binding constants (pK) of L-p-BPA carbohydrate/polyol complexes by 1H-NMR integration of aromatic protons; format: physicochemical; conditions: 1H-NMR in D2O buffered to physiological pH (7.4); free L-p-BPA vs complex aromatic protons; three concentrations
Excerpt: For fructose and sorbose, or when a large excess of another carbohydrate or polyol is used, the p-BPA remains in solution at a pH of 7.4, and approximately 90% of the p-BPA is present as its sodium carboxylate, with the remainder as its free acid. A large excess of carbohydrate or polyol is preferred when pK is small; however, for complexes with a pK>about 3 a large excess in not need. The ratio of free p-BPA to p-BPA:carbohydrate complex can be determined by integration of the aromatic protons resonances (p-BPA, 7.73 and 7.33 ppm; p-BPA-carbohydrate complex, 7.5 and 7.2 ppm) in the 1H-NMR spectrum using D2O buffered to physiological pH as the solvent. For example, L-p-boronophenylalanine fructose complex has a pK of 3.2 while the meso-erythitol complex has a pK of 1.0, the threitol complex has a pK of 1.3, the adonitol complex has a pK of 1.7, the arabitol complex has a pK of 2.3, the rhamnitol complex has a pK of 2.3, the xylitol complex has a pK of 2.5, the talitol complex has pK of 2.4, the dulcitol complex has a pK of 2.7, the mannitol complex has a pK of 2.7, the 1-aminodulcitol complex has a pK of 2.9, the sorbitol complex has a pK of 3.2, the 1-aminosorbitol complex has a pK of 3.4, the isomaltitol complex has a pK of 3.4, the cellobiitol complex has a pK of 3.5, the lactitol complex has a pK of 3.7, the maltitol complex has a pK of 3.9, the volemitol complex has a pK of 2.9, the perseitol complex has a pK of 3.1, the glucoheptitol complex has a pK of 3.9, and the alpha,alpha-glucooctitol complex has a pK of 4.1.
L-p-Boronophenylalanine-polyol or -aminopolyol complexes are prepared by combining 0.5 mM of alpha-deuterated or alpha-hydrogenated L-p-BPA with between 1.00 and 1.05 equivalents of complexing agent (with the exception of poorly complexing polyols and carbohydrates, in which up to 4.3 equivalents of polyol or carbohydrates are used) in 2 mL of water. One equivalent of NaOH (1 mL of 0.5 M) is then added and the slurry gently warmed if needed in order to dissolve all solids. The pH is then monitored and reduced to between 7.5 and 7.3 by the addition of Dowex50WX4-50 ion exchange resin. The clear solution is then passed through a 0.2 μm syringe filter and then freeze-dried to constant weight. ^1H and ^13C NMR spectra are recorded on a GE 300 MHz FT-NMR spectrometer with D2O buffered at 7.4 [Bates, R G, Bower, V E. 1956. Alkaline solutions for pH control. Anal. Chem. 28:1322-1324] as the solvent. The binding constants are calculated at three different concentrations by integration of the free L-p-BPA aromatic protons (7.73 and 7.33 ppm) compared with those of the L-p-BPA complexes (7.5 and 7.2 ppm). Spectra of the 1:1 complexes are reported.

[2] = physiological pH; cited from earlier work

Compound	pK of the p-BPA:carbohydrate/polyol complex (binding constant) [1]	water solubility [2]
L-p-boronophenylalanine-maltitol complex	3.9	
N[C@@H](Cc1ccc(B(O)O)cc1)C(=O)O [BPA, para-boronophenylalanine]		poor water solubility
L-p-boronophenylalanine-α-glucoheptitol complex	3.9	
L-p-boronophenylalanine-lactitol complex	3.7	
L-p-boronophenylalanine-α,α-glucooctitol complex [alpha,alpha-glucooctitol complex]	4.1	
L-p-boronophenylalanine-xylitol complex	2.5	
L-p-boronophenylalanine fructose complex [reference compound]	3.2	
L-p-boronophenylalanine-aminodulcitol complex [1-aminodulcitol complex]	2.9	

Further lines, with some results ahead:

pK of the p-BPA:carbohydrate/polyol complex (binding constant) [1]	Compound	water solubility [2]
3.4	L-p-boronophenylalanine-aminosorbitol complex [1-aminosorbitol complex]	
2.7	L-p-boronophenylalanine-mannitol complex	
2.9	L-p-boronophenylalanine-volemitol complex	
3.5	L-p-boronophenylalanine-cellobiitol complex	
3.1	L-p-boronophenylalanine-persietol complex [perseitol complex]	
2.7	L-p-boronophenylalanine-dulcitol complex	
3.4	L-p-boronophenylalanine-isomaltitol complex	
2.3	L-p-boronophenylalanine-rhamnitol complex	
3.2	L-p-boronophenylalanine-sorbitol complex	
